Laboratory results taken from ChEMBL document CHEMBL1201862, “PubChem BioAssay data set” (2004).
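A five-concentration, 48-hour dose response in 96-well plates underlies each endpoint, interpolated linearly between surrounding concentrations. Abbreviation: GI50, concentration required for 50% inhibition of growth.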 Calls of active or inactive are those of the source. No stated cut-off is given here; in the data, active = GI50 up to about 1.1 µM and inactive = higher.

What was measured:
Test in all cases: NCI anticancer screen, dose series, 48 h
786-0 = test system: 786-0
COLO 205 = test system: COLO 205
HOP-62 = test system: HOP-62
HOP-92 = test system: HOP-92
NCI-H23 = test system: NCI-H23
NCI-H460 = test system: NCI-H460
OVCAR-5 = test system: OVCAR-5
OVCAR-8 = test system: OVCAR-8
SK-MEL-2 = test system: SK-MEL-2
SN12C = test system: SN12C
SW-620 = test system: SW-620
U-251 = test system: U-251
IGROV-1 = test system: IGROV-1
M14 = test system: M14
A498 = test system: A498

Measured: GI50

Nc1nc(O)c2c(ncn2CCO)n1
inactive: 786-0 > 100 µM | COLO 205 > 100 µM | HOP-62 > 100 µM | HOP-92 > 100 µM | NCI-H23 > 100 µM | NCI-H460 > 100 µM | OVCAR-5 > 100 µM | OVCAR-8 > 100 µM | SK-MEL-2 > 100 µM | SN12C > 100 µM | SW-620 > 100 µM | U-251 > 100 µM

NC1=NS(=O)(=O)Nc2nc(-c3ccccc3)c(-c3ccccc3)nc21
inactive: 786-0 > 100 µM | COLO 205 > 100 µM | HOP-92 > 100 µM | IGROV-1 > 100 µM | M14 > 100 µM | NCI-H23 > 100 µM | NCI-H460 > 100 µM | OVCAR-5 > 100 µM | OVCAR-8 > 100 µM | SK-MEL-2 > 100 µM | SN12C > 100 µM | SW-620 > 100 µM | U-251 > 100 µM

Cc1cc(NCCCCCCCCNc2cc(C)nc3cc(N)ccc23)c2ccc(N)cc2n1
inactive: 786-0 18.9 µM | A498 39.6 µM | COLO 205 6.4 µM | HOP-62 26.9 µM | M14 16.7 µM | NCI-H23 14.3 µM | NCI-H460 15.7 µM | OVCAR-5 22.5 µM | OVCAR-8 17.2 µM | SK-MEL-2 13.6 µM | SN12C 15.8 µM | U-251 8.57 µM

Fc1ccc(C2SCc3nc4ccccc4n32)c(F)c1 (stereo unspecified)
inactive: 786-0 > 100 µM | A498 > 100 µM | COLO 205 > 100 µM | HOP-62 > 100 µM | HOP-92 29.8 µM | IGROV-1 > 100 µM | M14 73.1 µM | NCI-H23 46.3 µM | NCI-H460 54 µM | OVCAR-5 67.6 µM | OVCAR-8 79.3 µM | SK-MEL-2 71.9 µM | SN12C > 100 µM | SW-620 > 100 µM | U-251 75.5 µM

Cc1c(/C=N/NS(=O)(=O)c2ccccc2)no[n+]1[O-]
inactive: 786-0 > 100 µM | A498 > 100 µM | COLO 205 > 100 µM | HOP-92 > 100 µM | IGROV-1 > 100 µM | M14 > 100 µM | NCI-H23 > 100 µM | OVCAR-5 > 100 µM | OVCAR-8 > 100 µM | SK-MEL-2 > 100 µM | SN12C > 100 µM | SW-620 > 100 µM | U-251 > 100 µM

Cn1c(O)c(C(=O)NC2CCCCC2)c(=O)n(C)c1=S
inactive: 786-0 6.15 µM | A498 4.44 µM | COLO 205 1.94 µM | HOP-62 4.85 µM | HOP-92 3.59 µM | IGROV-1 4.89 µM | M14 8.02 µM | NCI-H23 4.4 µM | NCI-H460 6.1 µM | OVCAR-5 14.5 µM | OVCAR-8 4.33 µM | SK-MEL-2 5.11 µM | SN12C 6.12 µM | SW-620 5.79 µM | U-251 4.51 µM

CCCCCCCCCC1C(C)c2c([nH]c3ccccc23)C2C(=O)N(c3ccccc3)C(=O)C21 (stereo unspecified)
inactive: 786-0 12.4 µM | A498 19.2 µM | HOP-62 17.2 µM | IGROV-1 18.8 µM | M14 13.1 µM | NCI-H23 3.72 µM | NCI-H460 4.18 µM | OVCAR-5 17.4 µM | OVCAR-8 7.78 µM | SK-MEL-2 16.8 µM | SW-620 35.7 µM | U-251 13.8 µM

O=C1CC(c2c(-c3ccccc3)[nH]c3ccccc23)C(=O)N1 (stereo unspecified)
inactive: 786-0 > 100 µM | A498 90.2 µM | HOP-62 > 100 µM | IGROV-1 > 100 µM | M14 > 100 µM | NCI-H23 > 100 µM | NCI-H460 > 100 µM | OVCAR-5 > 100 µM | OVCAR-8 > 100 µM | SK-MEL-2 > 100 µM | SW-620 > 100 µM | U-251 > 100 µM

CC1NS(=O)(=O)N(C)C1=O (stereo unspecified)
inactive: 786-0 > 10 µM | HOP-62 > 100 µM | HOP-92 > 100 µM | IGROV-1 > 100 µM | M14 > 100 µM | NCI-H23 > 100 µM | OVCAR-5 > 100 µM | OVCAR-8 > 100 µM | SK-MEL-2 > 100 µM | SN12C > 100 µM | SW-620 > 100 µM | U-251 > 100 µM

CC(C(=O)c1ccc(O)cc1)C1(O)C(=O)Nc2c(Cl)cc(Cl)cc21 (stereo unspecified)
inactive: 786-0 48.1 µM | A498 > 49.1 µM | COLO 205 > 100 µM | HOP-62 > 100 µM | HOP-92 > 100 µM | IGROV-1 > 100 µM | M14 26.7 µM | NCI-H23 59.8 µM | NCI-H460 > 86.1 µM | OVCAR-5 > 100 µM | OVCAR-8 46.3 µM | SK-MEL-2 > 100 µM | SN12C 44.9 µM | SW-620 32.9 µM | U-251 > 78 µM
